Measurements as given in patent publication US20210255193A1, “LYSINE REACTIVE PROBES AND USES THEREOF” (The Scripps Research Institute, priority 2017, published 2021).

Columns and labels:
ADK = biological target: T1, ADK (Homo sapiens, UniProt P55263); assay: direct labeling of recombinantly expressed proteins by gel-based ABPP (WT vs lysine mutant); assay type: binding; settings: ADK K88, KR mutant; 10 μM probe, 1 h
T1 construct: expressed in transfected cells; host or cells: HEK 293T
Description: Subcloning and mutagenesis. Unless noted below, genes were amplified from cDNA prepared from low passage HEK 293T cells using the Ribozol RNA extraction reagent (Amresco) and the iScript Reverse Transcription Supermix kit (Bio-Rad). For the following proteins cDNA clones were used for amplification instead: PFKP (5180268, Dharmacon), HK1 (BC008730, transomic), SIN3A (BC137098, transomic), G6PD (BC000337, transomic) and TGIF1 (BC031268, transomic). Mouse CARM1 in pFLAG-CMV-6c was a kind gift from the Mowen lab (TSRI). NUDT2 was obtained as synthesized gene (IDT). DNA was amplified with custom forward and reverse primers using phusion polymerase (NEB, M0530S), digested with the indicated restriction enzyme and ligated into pFLAG-CMV-6c or pRK5 with the appropriate affinity tag. Lysine mutants were generated using QuikChange site-directed mutagenesis using Phusion® High-Fidelity DNA Polymerase and primers containing the desired mutations and their respective complements. The cloning of TTR and its K35A mutant has been described in Choi et al., “Chemoselective small molecules that covalently modify one lysine in a non-enzyme protein in plasma,” Nat. Chem. Biol. 6, 133-139 (2010). TTR was expressed in E. coli and purified as described. For gel-based experiments 1 μM TTR was added into 1 mg ml^−1 soluble MDA-MB-231 lysate.
Recombinant expression of proteins by transient transfection. HEK 293T cells were grown to 50% confluency in 10 ml DMEM supplemented with 10% fetal bovine serum (FBS), penicillin, streptomycin and glutamine in 10 cm tissue culture dishes. 3 μg of DNA was diluted in 500 μL DMEM and 30 μL of PEI (MW 40,000, 1 mg ml^−1, Polysciences) were added. The mixture was incubated at room temperature for 30 min and added dropwise to the cells. Cells were grown for 48 h at 37° C. with 5% CO2. Cells were washed with cold PBS, scraped with cold PBS and cell pellets were isolated by centrifugation (1,400 g, 3 min, 4° C.), and stored at −80° C. until use. Cell pellets were resuspended in PBS, lysed by sonication and fractionated (100,000 g, 45 min) to yield soluble and membrane fractions. The soluble fraction was adjusted to a final protein concentration of 1 mg ml^−1 for gel-based ABPP experiments.
Direct labeling of recombinantly expressed proteins by gel-based ABPP. 50 μL of soluble HEK 293T proteome (1 mg ml^−1) expressing the respective protein (WT or KR mutant) or transfected with an empty vector were treated with 10 μM of the indicated probe for 1 h at room temperature. The samples were analyzed as described in the previous section. For quantification of relative labeling of the different protein variants, the intensity of labeling was determined by quantifying the integrated optical intensity of the bands using ImageLab 5.2.1 software (BioRad).

[1] = biological target: T2, MAP4K5 Mitogen-activated protein kinase kinase kinase kinase 5 (Homo sapiens, UniProt Q9Y4K4); assay: competitive isoTOP-ABPP; assay type: binding; settings: 50 uM, 231 sol, in vitro
T2 construct: endogenous in cells; host or cells: MDA-MB-231 (soluble fraction of lysate)
T2 sequence (Q9Y4K4 whole entry): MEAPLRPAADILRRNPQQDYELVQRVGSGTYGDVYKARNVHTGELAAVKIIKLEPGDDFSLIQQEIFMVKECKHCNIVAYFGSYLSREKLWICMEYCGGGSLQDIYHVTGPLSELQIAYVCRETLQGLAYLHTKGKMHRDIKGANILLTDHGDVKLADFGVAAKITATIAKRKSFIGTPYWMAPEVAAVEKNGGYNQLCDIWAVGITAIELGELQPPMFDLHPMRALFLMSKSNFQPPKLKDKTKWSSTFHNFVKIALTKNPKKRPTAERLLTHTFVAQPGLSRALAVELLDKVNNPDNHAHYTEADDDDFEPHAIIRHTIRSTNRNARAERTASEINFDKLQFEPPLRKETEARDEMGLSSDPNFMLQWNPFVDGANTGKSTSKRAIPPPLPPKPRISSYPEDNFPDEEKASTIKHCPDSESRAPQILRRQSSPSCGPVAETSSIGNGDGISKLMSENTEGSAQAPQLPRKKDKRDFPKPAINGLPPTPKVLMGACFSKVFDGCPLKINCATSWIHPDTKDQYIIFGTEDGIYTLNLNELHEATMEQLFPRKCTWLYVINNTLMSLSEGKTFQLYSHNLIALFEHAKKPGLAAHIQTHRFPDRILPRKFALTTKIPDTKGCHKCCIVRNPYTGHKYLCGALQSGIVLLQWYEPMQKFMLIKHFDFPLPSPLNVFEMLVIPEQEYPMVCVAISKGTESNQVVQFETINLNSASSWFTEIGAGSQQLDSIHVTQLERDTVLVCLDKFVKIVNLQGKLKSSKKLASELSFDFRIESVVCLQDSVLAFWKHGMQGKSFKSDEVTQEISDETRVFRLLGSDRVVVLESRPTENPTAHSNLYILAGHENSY
Method in brief: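 Probe: STP-alkyne, 0.1 mM, 1 h RT, after fragment pretreatment of lysate (esters 50 μM; guanidinylators 100 μM). Tags: light = compound, heavy = DMSO, via CuAAC. Replicates averaged if SD <60% of mean; otherwise lowest ratio used when any R <4.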

T1 sequence (P55263 whole entry): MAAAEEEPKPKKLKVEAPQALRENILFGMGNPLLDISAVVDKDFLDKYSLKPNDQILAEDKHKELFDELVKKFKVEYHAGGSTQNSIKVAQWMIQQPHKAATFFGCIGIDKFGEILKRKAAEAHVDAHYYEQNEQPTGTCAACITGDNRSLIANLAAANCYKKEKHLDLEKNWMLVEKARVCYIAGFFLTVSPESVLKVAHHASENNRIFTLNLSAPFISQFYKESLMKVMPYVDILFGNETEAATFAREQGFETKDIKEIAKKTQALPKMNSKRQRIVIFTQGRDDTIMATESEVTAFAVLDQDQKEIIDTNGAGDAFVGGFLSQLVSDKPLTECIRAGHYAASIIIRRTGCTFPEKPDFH

SMILES	labeling of WT vs mutant protein by probe (ADK)	also measured
Cc1cc(C)n2c1C=C1C=CC(CCC(=O)Oc3c(F)c(F)c(S(=O)(=O)[O-])c(F)c3F)=[N+]1[B-]2(F)F.[Na+] [probe 18, reference compound]	PD (the WT labeled more than the mutant (>2x difference quantified))	–
C#Cc1ccc(C(=O)Oc2ccccc2[N+](=O)[O-])cc1 [probe 10, 2-Nitrophenyl 4-ethynylbenzoate]	HD (the WT labeled more than the mutant (>4x difference quantified))	–
C#Cc1ccc(C(=O)Oc2c(F)c(F)cc(F)c2F)cc1 [probe 12, 2,3,5,6-Tetrafluorophenyl 4-ethynylbenzoate]	HD (the WT labeled more than the mutant (>4x difference quantified))	–
C#CCCC(=O)Oc1c(F)c(F)c(S(=O)(=O)[O-])c(F)c1F.[Na+] [probe 1, reference compound]	PD (the WT labeled more than the mutant (>2x difference quantified))	–
O=C(CCc1cn(-c2ccccc2)nc1-c1ccccc1)Oc1ccc([N+](=O)[O-])cc1[N+](=O)[O-] [fragment 29, 2,4-Dinitrophenyl 3-(1,3-diphenyl-1H-pyrazol-4-yl)propanoate]	–	isoTOP-ABPP reactivity ratio at lysine Q9Y4K4_K49 [1]: 1.8
O=C(Oc1c(F)c(F)c(F)c(F)c1F)c1cc(C(F)(F)F)cc(C(F)(F)F)c1 [fragment 21, Pentafluorophenyl 3,5-bis(trifluoromethyl)benzoate]	–	R value (DMSO/fragment) for probe 1 labeling ([1]; Q9Y4K4_K49): 0.6
C#Cc1ccc(C(=O)Oc2c(F)c(F)c(F)c(F)c2F)cc1 [probe 13, Pentafluorophenyl 4-ethynylbenzoate]	HD (the WT labeled more than the mutant (>4x difference quantified))	–
Cn1cc(CC(=O)Oc2ccc([N+](=O)[O-])cc2[N+](=O)[O-])c2ccccc21 [fragment 32, 2,4-Dinitrophenyl 2-(1-methyl-1H-indol-3-yl)acetate]	–	isoTOP-ABPP reactivity ratio at lysine Q9Y4K4_K49 [1]: 5.3
